Experimental data taken from the supplement of paper PMC10307832.

Experiments:
Midostaurin + Luminespib = compound: CO[C@@H]1[C@H](N(C)C(=O)c2ccccc2)C[C@H]2O[C@]1(C)n1c3ccccc3c3c4c(c5c6ccccc6n2c5c31)C(=O)NC4 [Midostaurin] + CCNC(=O)c1noc(-c2cc(C(C)C)c(O)cc2O)c1-c1ccc(CN2CCOCC2)cc1 [Luminespib] (partner 0.01 µM); experiment: relative viability (nuclei count vs DMSO), 5 days (fraction); higher = more cells survive
Outline: (§1)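 Dosing by pin tool came one day after lung cancer cell lines were seeded in 1536-well plates, using either one drug or a fixed anchor-drug dose plus five library-drug doses (not always all listed) in √10 steps. After 5 days, nuclei were counted on 4× images. Relative viability is treated-well nuclei count divided by vehicle-well nuclei count, and values are medians of duplicate plates.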

Midostaurin + Dasatinib = compound: CO[C@@H]1[C@H](N(C)C(=O)c2ccccc2)C[C@H]2O[C@]1(C)n1c3ccccc3c3c4c(c5c6ccccc6n2c5c31)C(=O)NC4 [Midostaurin] + Cc1nc(Nc2ncc(C(=O)Nc3c(C)cccc3Cl)s2)cc(N2CCN(CCO)CC2)n1 [Dasatinib] (partner 0.075 µM); experiment: as above
Outline: as §1

Cell Line | relative viability (Midostaurin + Luminespib; first compound 0.01 µM) | relative viability (Midostaurin + Luminespib; first compound 0.03162 µM) | relative viability (Midostaurin + Luminespib; first compound 0.1 µM) | relative viability (Midostaurin + Luminespib; first compound 0.3162 µM) | relative viability (Midostaurin + Dasatinib; first compound 0.01 µM) | relative viability (Midostaurin + Dasatinib; first compound 0.03162 µM) | relative viability (Midostaurin + Dasatinib; first compound 0.1 µM) | relative viability (Midostaurin + Dasatinib; first compound 0.3162 µM)
NCI-H2342 | 0.704 | 0.708 | 0.738 | 0.754 | 0.332 | 0.305 | 0.319 | 0.327
HCC-15 | 0.305 | 0.38 | 0.308 | 0.165 | 0.735 | 0.655 | 0.657 | 0.635
A-427 | 0.869 | 0.905 | 0.753 | 0.953 | 0.726 | 0.63 | 0.607 | 0.704
NCI-H2228 | 0.155 | 0.163 | 0.164 | 0.134 | 0.501 | 0.622 | 0.534 | 0.526
NCI-H1734 | 0.224 | 0.192 | 0.178 | 0.187 | 0.404 | 0.632 | 0.477 | 0.338
PC-14 | 0.136 | 0.197 | 0.147 | 0.152 | 0.251 | 0.253 | 0.218 | 0.182
NCI-H1915 | 0.711 | 0.75 | 0.613 | 0.797 | 0.359 | 0.334 | 0.29 | 0.331
NCI-H1666 | 0.966 | 0.927 | 0.897 | 0.864 | 0.864 | 0.709 | 0.716 | 0.772
HCC-366 |  |  |  |  | 0.634 | 0.583 | 0.537 | 0.638
SK-MES-1 | 0.785 | 0.804 | 0.733 | 0.336 | 0.309 | 0.36 | 0.393 | 0.237
SW 1573 | 0.377 | 0.213 | 0.308 | 0.18 | 0.534 | 0.548 | 0.456 | 0.161
NCI-H661 | 0.799 | 0.783 | 0.924 | 1.04 | 0.882 | 0.806 | 0.852 | 0.737
PC-3 [JPC-3] | 0.736 | 0.658 | 0.667 | 0.692 | 0.952 | 0.893 | 1.07 | 1.01
NCI-H1623 | 0.526 | 0.647 | 0.513 | 0.632 | 0.53 | 0.594 | 0.507 | 0.652
LC-2-ad | 0.953 | 0.955 | 0.925 | 0.996 | 0.476 | 0.582 | 0.579 | 0.537
CAL-12T | 0.174 | 0.172 | 0.212 | 0.174 | 0.446 | 0.395 | 0.295 | 0.239
RERF-LC-KJ | 1.29 | 1.49 | 1.14 | 1.17 | 0.848 | 0.934 | 0.876 | 0.709
NCI-H1650 | 0.19 | 0.175 | 0.187 | 0.173 | 0.336 | 0.34 | 0.254 | 0.254
BEN | 0.541 | 1.23 | 0.396 | 0.457 | 0.371 | 0.32 | 0.405 | 0.379
EMC-BAC-2 | 1.11 | 1.05 | 0.898 | 1.16 | 0.358 | 0.372 | 0.273 | 0.248
LU99A | 0.268 | 0.221 | 0.228 | 0.291 | 0.434 | 0.549 | 0.541 | 0.348
ABC-1 |  | 0.571 | 0.641 | 0.591 | 0.512 | 0.668 | 0.451 | 0.504
NCI-H2170 | 0.628 | 0.509 | 0.633 | 0.767 | 0.572 | 0.55 | 0.512 | 0.735
NCI-H2347 | 0.422 | 0.727 | 0.366 | 0.325 | 0.328 | 0.305 | 0.281 | 0.327
NCI-H1993 | 0.807 | 0.821 | 0.866 | 0.856 | 0.65 | 0.608 | 0.668 | 0.419

Cell Line | relative viability (Midostaurin + Luminespib; first compound 0.01 µM) | relative viability (Midostaurin + Luminespib; first compound 0.03162 µM) | relative viability (Midostaurin + Luminespib; first compound 0.1 µM) | relative viability (Midostaurin + Luminespib; first compound 0.3162 µM) | relative viability (Midostaurin + Dasatinib; first compound 0.01 µM) | relative viability (Midostaurin + Dasatinib; first compound 0.03162 µM) | relative viability (Midostaurin + Dasatinib; first compound 0.1 µM) | relative viability (Midostaurin + Dasatinib; first compound 0.3162 µM)
NCI-H322M | 0.826 | 0.829 | 0.969 | 1.23 | 0.272 | 0.233 | 0.258 | 0.332
NCI-H838 | 0.32 | 0.362 | 0.322 | 0.299 | 0.237 | 0.282 | 0.292 | 0.288
HARA | 0.917 | 0.712 | 0.681 | 0.76 | 0.262 | 0.22 | 0.269 | 0.283
NCI-H2087 | 0.258 | 0.18 | 0.154 | 0.169 | 1.03 | 0.757 | 0.917 | 0.777
NCI-H1437 | 1.02 | 1 | 1.03 | 1.1 | 0.354 | 0.458 | 0.35 | 0.368
NCI-H1792 | 0.399 | 0.429 | 0.388 | 0.446 | 0.793 | 0.779 | 0.669 | 0.611
ChaGo-K-1 | 0.619 | 0.627 | 0.525 | 0.626 | 0.509 | 0.584 | 0.541 | 0.689
NCI-H650 | 0.76 | 0.826 | 0.8 | 0.771 | 0.401 | 0.406 | 0.385 | 0.315
COR-L23 | 0.605 | 0.644 | 0.541 | 0.625 | 0.436 | 0.455 | 0.368 | 0.27
COR-L 105 | 0.597 | 0.686 | 0.777 | 0.621 | 0.351 | 0.396 | 0.385 | 0.285
LK-2 | 0.191 | 0.221 | 0.187 | 0.199 | 0.333 | 0.251 | 0.393 | 0.501
201T | 1.02 | 0.98 | 0.997 | 1.06 | 0.557 | 0.533 | 0.562 | 0.558
HCC-44 |  | 1.1 | 0.964 | 1.11 |  |  |  | 
NCI-H596 | 1.13 | 1.17 | 0.869 | 1.18 | 0.661 | 0.662 | 0.646 | 0.729
H3255 | 1.14 | 0.848 | 0.779 | 0.848 | 0.346 | 0.29 | 0.37 | 0.354
NCI-H647 | 0.191 | 0.181 | 0.141 | 0.264 | 0.181 | 0.209 | 0.134 | 0.103
NCI-H2023 | 0.627 | 0.753 | 0.589 | 0.333 | 0.585 | 0.691 | 0.539 | 0.443
NCI-H23 | 0.263 | 0.251 | 0.227 | 0.197 | 0.88 | 0.659 | 0.559 | 0.523
NCI-H1944 | 0.764 | 0.872 | 0.67 | 0.773 | 0.222 | 0.227 | 0.234 | 0.222
NCI-H1793 | 0.281 | 0.307 | 0.169 | 0.168 | 0.481 | 0.38 | 0.345 | 0.362
NCI-H520 | 0.221 | 0.204 | 0.235 | 0.258 | 0.176 | 0.178 | 0.272 | 0.203
NCI-H460 | 0.0367 | 0.0356 | 0.0302 | 0.0369 | 0.576 | 0.493 | 0.478 | 0.553
EKVX | 0.883 | 0.868 | 0.823 | 0.749 | 0.696 | 0.598 | 0.468 | 0.456
NCI-H358 | 0.241 | 0.309 | 0.263 | 0.298 | 0.177 | 0.124 | 0.15 | 0.208
EPLC-272H | 0.323 |  | 0.333 | 0.48 | 0.381 |  | 0.422 | 0.351

Cell Line | relative viability (Midostaurin + Luminespib; first compound 0.01 µM) | relative viability (Midostaurin + Luminespib; first compound 0.03162 µM) | relative viability (Midostaurin + Luminespib; first compound 0.1 µM) | relative viability (Midostaurin + Luminespib; first compound 0.3162 µM) | relative viability (Midostaurin + Dasatinib; first compound 0.01 µM) | relative viability (Midostaurin + Dasatinib; first compound 0.03162 µM) | relative viability (Midostaurin + Dasatinib; first compound 0.1 µM) | relative viability (Midostaurin + Dasatinib; first compound 0.3162 µM)
NCI-H1563 | 0.505 | 0.515 | 0.501 | 0.492 | 0.402 | 0.469 | 0.43 | 0.465
NCI-H1395 | 0.837 | 0.702 | 0.573 | 0.665 | 0.435 | 0.38 | 0.404 | 0.403
NCI-H2126 | 0.889 | 0.679 | 0.847 | 0.896 | 0.623 | 0.502 | 0.596 | 0.644
LXF-289 | 0.692 | 0.706 | 0.482 | 0.596 | 0.21 | 0.173 | 0.174 | 0.124
NCI-H2009 | 1.05 | 0.954 | 0.936 | 1 | 0.33 | 0.268 | 0.254 | 0.21
NCI-H522 | 1.07 | 1.51 | 1.26 | 1.21 | 0.981 | 0.995 | 0.789 | 1.04
NCI-H2405 | 0.729 | 0.704 | 0.64 | 0.45 | 0.216 | 0.199 | 0.212 | 0.201
NCI-H1755 | 0.418 | 0.47 | 0.247 | 0.443 | 0.413 | 0.447 | 0.436 | 0.343
HCC-78 |  |  |  |  | 0.375 | 0.371 | 0.373 | 0.219
LOU-NH91 | 0.328 | 0.347 | 0.394 | 0.309 | 0.594 | 0.534 | 0.606 | 0.582
NCI-H3122 | 0.093 | 0.104 | 0.0868 | 0.0981 | 0.779 | 0.698 | 0.731 | 0.978
HCC-827 | 0.51 | 0.644 | 0.709 | 0.813 | 0.417 | 0.441 | 0.386 | 0.341
SK-LU-1 | 0.202 | 0.199 | 0.206 | 0.194 | 0.198 | 0.191 | 0.176 | 0.175
NCI-H1975 | 0.226 | 0.19 | 0.123 | 0.223 | 0.381 | 0.374 | 0.326 | 0.296
NCI-H1651 | 0.905 | 0.731 | 0.664 | 0.66 | 0.322 | 0.488 | 0.408 | 0.446
NCI-H441 | 0.379 | 0.358 | 0.429 | 0.351 | 0.677 | 0.533 | 0.552 | 0.405
LCLC-103H | 0.906 | 0.875 | 0.847 | 0.674 | 0.545 | 0.456 | 0.389 | 0.416
LCLC-97TM1 | 0.836 | 0.713 | 0.749 | 0.763 | 0.822 | 0.798 | 0.827 | 0.968
NCI-H727 | 0.343 | 0.335 | 0.264 | 0.902 | 0.363 | 0.41 | 0.462 | 0.383
NCI-H1355 | 0.682 | 0.762 | 0.666 | 0.702 | 0.796 | 0.777 | 0.743 | 0.818
HOP-62 | 0.871 | 0.875 | 0.934 | 0.984 | 0.674 | 0.675 | 0.643 | 0.509
NCI-H2085 | 0.42 | 0.464 | 0.371 | 0.42 | 0.29 | 0.273 | 0.26 | 0.236
SW 900 | 0.192 | 0.198 | 0.189 | 0.151 | 0.7 | 0.684 | 0.538 | 0.275
